Data as given in paper PMC9501377, “New Diarylamine KV10.1 Inhibitors and Their Anticancer Potential” (Pharmaceutics, 2022).

Experiments:
KV10.1 (Eag1) = molecular target: T1, KV10.1 (Eag1) (Homo sapiens, UniProt O95259); assay: Whole-cell patch-clamp on stably transfected HEK-293 cells expressing KV10.1; type: cell-based; settings: for IC50: whole-cell patch-clamp, dose–response fit
T1 construct: expressed in transfected cells; host or cells: HEK-293 (stably transfected)
T1 sequence (O95259 1-962 isoform O95259-2): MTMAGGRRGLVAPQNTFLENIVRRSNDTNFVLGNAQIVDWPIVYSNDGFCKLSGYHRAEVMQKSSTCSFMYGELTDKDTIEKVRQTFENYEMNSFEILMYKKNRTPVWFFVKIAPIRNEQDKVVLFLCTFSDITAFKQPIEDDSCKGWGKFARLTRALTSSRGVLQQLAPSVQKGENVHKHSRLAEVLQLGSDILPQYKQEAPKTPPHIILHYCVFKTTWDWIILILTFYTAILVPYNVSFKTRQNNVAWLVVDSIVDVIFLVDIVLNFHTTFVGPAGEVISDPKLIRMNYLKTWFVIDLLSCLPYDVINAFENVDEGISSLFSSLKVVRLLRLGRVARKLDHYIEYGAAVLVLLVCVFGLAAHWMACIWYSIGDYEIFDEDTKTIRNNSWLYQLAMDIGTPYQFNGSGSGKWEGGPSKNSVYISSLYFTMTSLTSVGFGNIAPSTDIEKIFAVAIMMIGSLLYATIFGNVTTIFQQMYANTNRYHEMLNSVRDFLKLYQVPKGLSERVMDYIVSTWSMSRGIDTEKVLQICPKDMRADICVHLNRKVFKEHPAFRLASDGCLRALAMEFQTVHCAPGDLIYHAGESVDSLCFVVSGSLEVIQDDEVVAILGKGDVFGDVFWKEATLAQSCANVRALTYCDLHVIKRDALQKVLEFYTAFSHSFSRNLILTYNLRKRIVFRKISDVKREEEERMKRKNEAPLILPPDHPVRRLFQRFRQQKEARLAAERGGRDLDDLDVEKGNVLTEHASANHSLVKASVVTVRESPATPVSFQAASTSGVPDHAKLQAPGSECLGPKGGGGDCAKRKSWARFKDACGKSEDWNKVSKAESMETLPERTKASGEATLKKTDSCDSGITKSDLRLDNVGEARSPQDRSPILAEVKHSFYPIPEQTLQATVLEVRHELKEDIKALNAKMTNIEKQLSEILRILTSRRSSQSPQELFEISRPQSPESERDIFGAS
Protocol: For whole-cell patch-clamp measurements, stably transfected HEK-293 cells expressing KV10.1 [26, 27, 28] were grown in DMEM with 10% FCS and 300 µg/mL Zeocin on glass coverslips coated with fibronectin. All experiments were conducted at room temperature under perfusion by gravity with extracellular solution (160 mM NaCl, 2.5 mM KCl, 2 mM CaCl2, 1 mM MgCl2, 10 mM Hepes pH 7.4 with NaOH, 8 mM glucose). Pipettes were made from #1 glass capillaries (WPI) and had 1–3 MΩ resistance. The intracellular solution contained 100 mM KCl, 45 mM N-methyl-D-glucamine, 10 mM 1,2-bis(o-aminophenoxy)ethane-N,N,N′,N′-tetraacetic acid (BAPTA), 10 mM Hepes pH 7.35. Stimulation was applied and data were acquired with an EPC10 Plus amplifier (HEKA Elektronik) controlled with Patch Master software. Compounds were applied with an 8-channel fast solution exchanger (ALA). Compounds were prepared to a stock concentration of 10 mM in DMSO. The control solution contained 0.5% DMSO. Stimuli consisted of 500 ms depolarizations to +40 mV.
All electrophysiological data are presented as means ± SEM of n ≥ 3 independent experiments unless otherwise indicated. Oocyte data were analysed using pClamp Clampfit 10.4 (Molecular Devices, Downingtown, PA, USA) and OriginPro 9 (Originlab, Northampton, MA, USA) or GraphPad Prism 8 software (GraphPad Software, Inc., San Diego, CA, USA). Patch-clamp data analysis was performed using FitMaster (HEKA Electronics), IgorPro (Wavemetrics, Inc., Lake Oswego, OR, USA) and GraphPad Prism 9 (GraphPad Software, Inc., San Diego, CA, USA). The Dunnett test and one-way ANOVA were performed to calculate the significance of the induced inhibition compared to the control (p < 0.05).

hERG = hERG (Homo sapiens, UniProt Q12809); assay: Whole-cell patch-clamp, hERG inhibition; type: cell-based; parameters: expressed in transfected cells; settings: dose–response fit
MCF-7 cells = assay: Cell growth by Incucyte confluence, MCF-7; type: cell-based, human; settings: 48–72 h
Protocol: (§1) MCF-7 (DSMZ ACC 115) and PANC-1 (DSMZ ACC 783) cells were grown as recommended by the cell supplier at 5% CO2 and 37 °C in a humidified atmosphere. For determining cell growth, cells were seeded in 96-well culture plates (Corning, Corning, NY, USA) at a density of 10^4 cells/well. After 24 h, the compounds were added diluted in medium. Six wells per condition were used. Four images of each well were collected at 1 h intervals for 48–72 h. Two biological replicates were performed. Images were acquired using an Incucyte device (Sartorius/Essen biosciences). Cell confluence was calculated using the Incucyte software on the phase contrast images. The results are expressed as percent confluence per well normalised to the value with no compounds added.

Panc-1 cells = assay: Cell growth by Incucyte confluence, Panc-1; type: cell-based, human; settings: 48–72 h
Protocol: as §1

[1] = HEK293, HEK-293 cells, patch-clamp, mean ± SEM
[2] = HEK-293 cells, patch-clamp, mean ± SEM
[3] = concentrations higher than 25 µM

Chain of hERG (Q12809 whole entry): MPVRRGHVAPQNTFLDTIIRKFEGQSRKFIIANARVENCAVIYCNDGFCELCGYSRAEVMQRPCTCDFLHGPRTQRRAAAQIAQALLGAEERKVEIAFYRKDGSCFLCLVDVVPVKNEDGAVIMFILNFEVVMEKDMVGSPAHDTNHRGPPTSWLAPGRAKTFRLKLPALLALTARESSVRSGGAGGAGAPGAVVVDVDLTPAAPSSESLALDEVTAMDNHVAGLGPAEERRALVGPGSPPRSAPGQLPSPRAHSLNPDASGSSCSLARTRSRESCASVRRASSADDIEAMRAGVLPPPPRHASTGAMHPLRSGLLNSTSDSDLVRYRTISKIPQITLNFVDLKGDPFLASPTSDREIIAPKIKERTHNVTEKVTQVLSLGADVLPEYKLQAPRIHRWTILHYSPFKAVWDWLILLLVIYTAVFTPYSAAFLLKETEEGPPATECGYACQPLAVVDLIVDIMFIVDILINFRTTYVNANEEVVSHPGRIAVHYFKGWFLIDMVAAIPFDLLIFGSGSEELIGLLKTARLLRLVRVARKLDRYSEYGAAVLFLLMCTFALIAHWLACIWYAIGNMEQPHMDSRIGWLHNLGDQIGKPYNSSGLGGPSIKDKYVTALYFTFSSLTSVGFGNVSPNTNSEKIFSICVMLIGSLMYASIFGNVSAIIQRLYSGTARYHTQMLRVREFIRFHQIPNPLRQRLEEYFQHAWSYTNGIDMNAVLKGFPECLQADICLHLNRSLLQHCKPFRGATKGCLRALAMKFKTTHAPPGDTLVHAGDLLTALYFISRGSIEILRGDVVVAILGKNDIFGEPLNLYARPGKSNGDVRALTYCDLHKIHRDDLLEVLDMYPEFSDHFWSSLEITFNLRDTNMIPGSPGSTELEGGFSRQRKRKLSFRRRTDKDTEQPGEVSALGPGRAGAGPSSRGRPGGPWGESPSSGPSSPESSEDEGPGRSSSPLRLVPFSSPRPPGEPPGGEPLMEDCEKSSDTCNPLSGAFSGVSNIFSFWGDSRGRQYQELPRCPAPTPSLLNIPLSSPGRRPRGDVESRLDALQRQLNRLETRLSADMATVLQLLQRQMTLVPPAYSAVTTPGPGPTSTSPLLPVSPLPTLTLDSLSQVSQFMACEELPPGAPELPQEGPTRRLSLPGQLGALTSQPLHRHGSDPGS

Row | Compound | inhibition at 10 µM (KV10.1 (Eag1); [1]) | further results
1 | COC(=O)c1ccccc1Oc1ccc(OCC(O)CN2CCOCC2)cc1 (stereo not drawn) [Compound 5a, Methyl 2-(4-(2-hydroxy-3-morpholinopropoxy)phenoxy)benzoate] | 4.1 ± 2.6% | –
2 | O=[N+]([O-])c1cc(C(F)(F)F)ccc1Oc1ccc(OCC(O)CN2CCOCC2)cc1 (stereo not drawn) [Compound 5b, 1-Morpholino-3-(4-(2-nitro-4-(trifluoromethyl)phenoxy)phenoxy)propan-2-ol] | 2.9 ± 5.3% | –
3 | O=C(Nc1ccc(OCC(O)CN2CCOCC2)cc1)c1ccc(C(F)(F)F)cc1[N+](=O)[O-] (stereo not drawn) [Compound 5c, N-(4-(2-Hydroxy-3-morpholinopropoxy)phenyl)-2-nitro-4-(trifluoromethyl)benzamide] | 7.5 ± 3.5% | –
4 | COC(=O)c1ccccc1Nc1ccc(OCC(O)CN2CCOCC2)cc1 (stereo not drawn) [Compound 5d, Methyl 2-((4-(2-hydroxy-3-morpholinopropoxy)phenyl)amino)benzoate] | 2.7 ± 1.2% | –
5 | O=[N+]([O-])c1ccc(Nc2ccc(OCC(O)CN3CCOCC3)cc2)c([N+](=O)[O-])c1 (stereo not drawn) [Compound 5f, 1-(4-((2,4-Dinitrophenyl)amino)phenoxy)-3-morpholinopropan-2-ol] | 61.7 ± 9.1% | –
6 | CN(C)CC(O)COc1ccc(Oc2ccc(C(F)(F)F)cc2[N+](=O)[O-])cc1 (stereo not drawn) [Compound 6a, 1-(Dimethylamino)-3-(4-(2-nitro-4-(trifluoromethyl)phenoxy)phenoxy)propan-2-ol] | 18.8 ± 4% | –
7 | CN(C)CC(O)COc1ccc(NC(=O)c2ccc(C(F)(F)F)cc2[N+](=O)[O-])cc1 (stereo not drawn) [Compound 6b, N-(4-(3-(Dimethylamino)-2-hydroxypropoxy)phenyl)-2-nitro-4-(trifluoromethyl)benzamide] | 1.7 ± 6% | –
8 | COC(=O)c1cc(C(F)(F)F)ccc1Nc1ccc(OCC(O)CN(C)C)cc1 (stereo not drawn) [Compound 6c, Methyl 2-((4-(3-(dimethylamino)-2-hydroxypropoxy)phenyl)amino)-5-(trifluoromethyl)benzoate] | 4.2 ± 5.5% | –
9 | CN(C)CC(O)COc1ccc(Nc2ccc([N+](=O)[O-])cc2[N+](=O)[O-])cc1 (stereo not drawn) [Compound 6d, 1-(Dimethylamino)-3-(4-((2,4-dinitrophenyl)amino)phenoxy)propan-2-ol] | 61.9 ± 9% | –
10 | O=C(O)c1ccccc1Nc1ccc(OCC(O)CN2CCOCC2)cc1 (stereo not drawn) [Compound 10a, 2-((4-(2-Hydroxy-3-morpholinopropoxy)phenyl)amino)benzoic acid] | 5.8 ± 5.3% | –
11 | CN(C)CC(O)COc1ccc(Nc2ccc(C(F)(F)F)cc2C(=O)O)cc1 (stereo not drawn) [Compound 10b, 2-((4-(3-(Dimethylamino)-2-hydroxypropoxy)phenyl)amino)-5-(trifluoromethyl)benzoic acid] | -2.1 ± 5.7% | –
12 | O=[N+]([O-])c1cc(C(F)(F)F)ccc1Nc1ccc(OCCN2CCOCC2)cc1 [Compound 13, N-(4-(2-Morpholinoethoxy)phenyl)-2-nitro-4-(trifluoromethyl)aniline] | 62.4 ± 3.9% | –
13 | O=[N+]([O-])c1cc(C(F)(F)F)ccc1Nc1ccc(OCc2ccccc2)cc1 [Compound 14, N-(4-(Benzyloxy)phenyl)-2-nitro-4-(trifluoromethyl)aniline] | 3.3 ± 1.7% | % of Kv10.1 Inhibition at 10 μM (HEK-293 Cells) (KV10.1 (Eag1); [2]): inactive
14 | CNCC(O)COc1ccc(Nc2ccc(C(F)(F)F)cc2[N+](=O)[O-])cc1 (stereo not drawn) [Compound 15, 1-(Methylamino)-3-(4-((2-nitro-4-(trifluoromethyl)phenyl)amino)phenoxy)propan-2-ol] | 66.6 ± 4.3% | –
15 | O=C(Cc1ccc(Cl)c(Cl)c1)NC1CCN(CC(O)COc2ccc(Nc3ccc(C(F)(F)F)cc3[N+](=O)[O-])cc2)CC1 (stereo not drawn) [Compound 16d, 2-(3,4-Dichlorophenyl)-N-(1-(2-hydroxy-3-(4-((2-nitro-4-(trifluoromethyl)phenyl)amino)phenoxy)propyl)piperidin-4-yl)acetamide] | – | inhibition at 50 µM (KV10.1 (Eag1); HEK293, 50 μM, HEK-293 cells, patch-clamp, mean ± SEM): 21.8 ± 4.4%
16 | CCN(CC)CCOc1ccc(Nc2ccc(C(F)(F)F)cc2[N+](=O)[O-])cc1 [Compound 17a, N-(4-(2-(Diethylamino)ethoxy)phenyl)-2-nitro-4-(trifluoromethyl)aniline] | 86.2 ± 6.8% | IC50 (hERG): 232 nM; IC50 (KV10.1 (Eag1)): 568 nM; reduction of proliferation of MCF-7 cells (MCF-7 cells; 25 µM): approximately half; inhibition of growth of MCF-7 cells (MCF-7 cells; [3]): approximately 50%; reduction of proliferation of Panc-1 cells (Panc-1 cells; 25 µM): approximately half; inhibition of growth of Panc-1 cells (Panc-1 cells; [3]): approximately 50%
17 | CCN(CC)CCOc1c(Br)cc(Nc2ccc(C(F)(F)F)cc2[N+](=O)[O-])cc1Br [Compound 17b, 3,5-Dibromo-4-(2-(diethylamino)ethoxy)-N-(2-nitro-4-(trifluoromethyl)phenyl)aniline] | – | inhibition at 1 µM (KV10.1 (Eag1); [1]): 38.2 ± 1.4%
18 | CCN(CC)CCOc1c(Cl)cc(Nc2ccc(C(F)(F)F)cc2[N+](=O)[O-])cc1Cl [Compound 17c, 3,5-Dichloro-4-(2-(diethylamino)ethoxy)-N-(2-nitro-4-(trifluoromethyl)phenyl)aniline] | – | inhibition at 1 µM (KV10.1 (Eag1); [1]): 66.5 ± 5.5%
19 | CN(C)CCOc1ccc(Nc2ccc(C(F)(F)F)cc2[N+](=O)[O-])cc1 [Compound 18a, N-(4-(2-(Dimethylamino)ethoxy)phenyl)-2-nitro-4-(trifluoromethyl)aniline] | 81.4 ± 5.6% | IC50 (hERG): 177 nM; IC50 (KV10.1 (Eag1)): 892 nM
20 | CN(C)CCOc1c(Cl)cc(Nc2ccc(C(F)(F)F)cc2[N+](=O)[O-])cc1Cl [Compound 18c, 3,5-Dichloro-4-(2-(dimethylamino)ethoxy)-N-(2-nitro-4-(trifluoromethyl)phenyl)aniline] | – | inhibition at 1 µM (KV10.1 (Eag1); [1]): 28.4 ± 12.1%
21 | O=[N+]([O-])c1cc(C(F)(F)F)ccc1Nc1ccc(OCCN2CCCC2)cc1 [Compound 19, 2-Nitro-N-(4-(2-(pyrrolidin-1-yl)ethoxy)phenyl)-4-(trifluoromethyl)aniline] | 68.4 ± 14.8% | –
22 | O=[N+]([O-])c1cc(C(F)(F)F)ccc1Nc1ccc(OCCN2CCCCC2)cc1 [Compound 20, 2-Nitro-N-(4-(2-(piperidin-1-yl)ethoxy)phenyl)-4-(trifluoromethyl)aniline] | 65 ± 6% | –
23 | O=[N+]([O-])c1cc(C(F)(F)F)ccc1Nc1ccc(OCCN2CCCCCC2)cc1 [Compound 21, N-(4-(2-(Azepan-1-yl)ethoxy)phenyl)-2-nitro-4-(trifluoromethyl)aniline] | 71 ± 4.12% | –
24 | Methyl 2-((4-(2-hydroxy-3-morpholinopropoxy)phenyl)amino)benzoate [Compound 5e] | – | % of Kv10.1 Inhibition at 10 μM (HEK-293 Cells) (KV10.1 (Eag1); [2]): 12.6 ± 6.4%
